According to patent publication US20260216182A1, “PYRIDAZINE NLRP3 INHIBITOR COMPOUND, PHARMACEUTICAL COMPOSITION, AND PREPARATION METHOD THEREFOR AND USE THEREOF” (CHANGCHUN GENESCIENCE PHARMACEUTICAL CO., LTD., priority 2022, published 2026):
Read-outs that look alike come from different tables or passages of the source.

Columns and labels:
IL-1β = test: Mouse acute peritonitis model (LPS/ATP), IL-1β in peritoneal lavage fluid and blood; assay type: in vivo, C57BL/6 mice; conditions: Mus musculus, 10 mg/kg oral, vs vehicle group
Method: Test Example 2: Mouse Acute Peritonitis Model Evaluation Experiment
Male C57BL/6 mice were orally administered with a 10 mg/kg dose of the test compound or control vehicle, and then injected intraperitoneally with 1 μg of E. coli 055: B5 ultrapure lipopolysaccharide (LPS) suspension 1 h later, followed by an intraperitoneal injection of 0.5 ml of 30 mM disodium salt ATP suspension (in PBS, the pH of the ATP solution was adjusted to 7.2 before injection) 2 h later. After 30 min, all animals would be euthanized by carbon dioxide, and blood and peritoneal lavage fluid would be collected. The peritoneal lavage fluid was kept at 4° C.
Preparation of peritoneal lavage fluid: The peritoneal cavity would be lavaged with ice-cold PBS (3 mL) containing 25 U/mL heparin and 10% heat-inactivated FBS. Prior to use, one tablet of the protease inhibitor mixture was added per 50 mL of buffer. The collected lavage fluid would be centrifuged (centrifugation conditions: 1000g, 4° C., 10 min) to remove cells and cell debris, and the clarified samples would be stored at −80° C. for measurement of cytokine IL-1β.
The mouse IL-1β/IL-1F2 DuoSet ELISA kit (R&D Systems) was used to measure the changes in IL-1β cytokine levels in peritoneal lavage fluid and serum. By comparing with the Vehical group, the inhibition rate of the compound on IL-1β was calculated.

NLRP3 = biological target: T1, NLRP3 (Homo sapiens, UniProt Q96P20); test: IC50 of NLRP3 inhibitors in reducing IL-1β secretion by THP-1 cells (PMA, LPS, nigericin; ELISA); assay type: cell-based; conditions: compound + nigericin 1 h
T1 construct: endogenous in cells; host or cells: THP-1 (human monocyte, PMA-differentiated, LPS-primed, nigericin-stimulated)
T1 sequence (Q96P20 whole entry): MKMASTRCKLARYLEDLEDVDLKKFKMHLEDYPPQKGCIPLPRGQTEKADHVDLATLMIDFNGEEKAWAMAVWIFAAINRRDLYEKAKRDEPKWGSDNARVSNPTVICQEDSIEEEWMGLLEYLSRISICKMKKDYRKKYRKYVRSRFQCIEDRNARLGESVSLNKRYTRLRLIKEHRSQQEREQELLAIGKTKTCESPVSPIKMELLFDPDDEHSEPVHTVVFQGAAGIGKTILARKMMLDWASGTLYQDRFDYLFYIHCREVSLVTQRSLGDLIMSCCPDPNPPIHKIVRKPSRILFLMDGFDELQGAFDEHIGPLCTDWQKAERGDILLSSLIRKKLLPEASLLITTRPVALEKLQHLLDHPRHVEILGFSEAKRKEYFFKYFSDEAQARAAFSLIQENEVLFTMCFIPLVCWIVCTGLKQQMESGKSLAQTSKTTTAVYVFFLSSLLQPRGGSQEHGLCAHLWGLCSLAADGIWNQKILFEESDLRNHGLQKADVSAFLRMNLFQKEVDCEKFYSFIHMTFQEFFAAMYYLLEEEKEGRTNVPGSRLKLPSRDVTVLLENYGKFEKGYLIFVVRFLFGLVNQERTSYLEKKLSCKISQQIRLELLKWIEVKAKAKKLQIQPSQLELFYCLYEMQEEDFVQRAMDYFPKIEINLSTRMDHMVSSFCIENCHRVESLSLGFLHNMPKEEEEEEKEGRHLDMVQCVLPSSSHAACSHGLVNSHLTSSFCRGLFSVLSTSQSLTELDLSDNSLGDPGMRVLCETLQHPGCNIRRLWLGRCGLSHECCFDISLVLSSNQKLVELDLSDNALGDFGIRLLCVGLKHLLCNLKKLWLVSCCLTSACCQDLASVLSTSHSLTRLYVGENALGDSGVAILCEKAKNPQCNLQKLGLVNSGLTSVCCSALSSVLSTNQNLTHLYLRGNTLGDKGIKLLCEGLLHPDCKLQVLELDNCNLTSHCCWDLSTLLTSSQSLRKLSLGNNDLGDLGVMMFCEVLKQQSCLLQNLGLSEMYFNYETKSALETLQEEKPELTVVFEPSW
Method: Test Example 1 Experiment on Detection of IC50 of NLRP3 Inhibitors in Reducing the Level of IL-1β Secretion by THP-1 Cells
In this experiment, we use the human monocyte THP-1 to study the inhibitory activity of NLRP3 inhibitor on the secretion of IL-Iβ by cells. Human THP-1 cells are treated with crotonol-12-tetradecanoate-13-acetate (PMA) to differentiate into mature macrophage models. Then, according to the two stages of inflammasome formation in cells (assembly and activation), the cells are stimulated with lipopolysaccharide (LPS) and nigericin in turn, ultimately promoting the extracellular release of IL-1β by THP-1 cells. The first stage of inflammasome formation involves stimulating cells with LPS (lipopolysaccharide), an agonist of the Toll-like receptor TLR4, to activate the expression of the inflammasome-associated proteins NLRP3, caspase 1, and pro-IL-1β, a precursor of IL-1β. The second stage of inflammasome formation involves the addition of the potassium ion carrier nigericin, which causes a series of membrane potential changes in THP-1 cells, destroys the cell membrane structure, causes the efflux of cellular potassium ions, further stimulates the oligomerization of NLRP3 monomers to form NLRP3 oligomers, and begins to recruit ASC and pro-caspase-1 to assemble the NLRP3 inflammasome complex containing a large amount of pro-caspase-1. The pro-caspase-1 on the activated NLRP3 inflammasome is enzymatically self-activated to form a large amount of active caspase-1. The activated caspase-1 further enzymatically promotes the conversion of pro-IL-1β into mature IL-1β that can be secreted.
(1) Cell suspensions were collected. The cells were centrifuged at 1000 rpm for 4 min, the supernatant was discarded, the cells were resuspended with 1 mL of test medium, and then the cell culture medium was gently pipetted up and down with a pipette and its tip to break up the cell aggregates. After counting the cells, the THP-1 cells were resuspended with complete RPMI medium 1640 containing PMA and seeded into 96-well plates and cultured in a 37° C., 5% CO2 incubator for 72 h.
(2) The culture medium was taken out from each well with an automatic plate washer dispenser EL406 and each well was rinsed twice with PBS. To each well, 96 μL of RPMI 1640 medium containing LPS was added. The cells were cultured in a 37° C., 5% CO2 incubator for 4 h.
(3) To each well, 2 μL of the compound and 2 μL of nigericin sodium salt were added, and the final compound concentration selected was 5000 nM, 1000 nM, 200 nM, 40 nM, 8 nM, 1.6 nM, 0.32 nM, 0 nM, respectively. The cells were cultured in a 37° C., 5% CO2 incubator for 1 h.
(4) An appropriate amount of supernatant was taken out, diluted 100 times, and the content of IL-1β in the supernatant was detected using Human IL-1 beta Valukine ELISA kit.

mouse NASH model = test: Mouse NASH model test (HFD + fructose), combination with semaglutide; assay type: in vivo, mice; conditions: low/high dose semaglutide alone
Method: Test Example 6 Mouse NASH Model Test
After the animals arrived and acclimatized for 1 week, they were randomly divided into 2 groups. 48 mice were fed a high-fat diet (HFD) and had free access to 15% fructose water (w/w). After the animals were fed for 20 weeks, they were fasted for 6 h, and fasting blood glucose (FBG) was monitored by a blood glucose meter. Orbital blood was taken from all animals, and serum was collected by centrifugation to detect serum ALT levels. Animals were randomly divided into 6 groups according to their body weight, FBG and ALT levels. After that, the high fat feed (HFD) was replaced with the modified high fat feed (mHFD), and the mice had free access to 15% fructose water (v/w). The 8 mice in the other group were fed normal diet and water.
The first end point of the experiment: After 8 weeks of administration, the end point body weight was recorded and the animals were fasted for 6 h, and fasting blood glucose was measured with a blood glucose meter. The mice were then euthanized by CO2 and serum was collected by orbital blood sampling and stored at −80° C. for insulin and biochemical analysis. The animal's liver was taken and the liver weight was recorded. The liver was divided into four parts, one part was quick-frozen in liquid nitrogen for biochemical analysis, one part was placed in tissue fixative for pathological analysis, one part was stored in RNAlater for qPCR detection (backup for later use), and one part was quick-frozen in liquid nitrogen for possible subsequent detection.
The second end point of the experiment: 3 mice were kept in each group for 6 weeks for further observation. The end point body weight was recorded and the mice were fasted for 6 h. Fasting blood glucose was tested with a blood glucose meter. The mice were then euthanized by CO2 and serum was collected by orbital blood sampling and stored at −80° C. for insulin and biochemical analysis. The animal's liver was taken and the liver weight was recorded. The liver was divided into four parts, one part was quick-frozen in liquid nitrogen for biochemical analysis, one part was placed in tissue fixative for pathological analysis, one part was stored in RNAlater for qPCR detection (backup for later use), and one part was quick-frozen in liquid nitrogen for subsequent detection.

[1] = read-out: IL-1β Peritoneal lavage fluid (inhibition rate)
[2] = read-out: IL-1β Plasma (inhibition rate)

Row | IC50 (NLRP3) | Compound | inhibition at 10 mg/kg (IL-1β; [1]) | inhibition at 10 mg/kg (IL-1β; [2]) | rebound of body weight after drug withdrawal (mouse NASH model)
1 | 15 nM | CC#Cc1ccc2c(-c3c(O)cc(Cl)cc3F)nnc(NC[C@H](O)CO)c2c1 [Compound 063, (2S)-3-((4-(4-chloro-2-fluoro-6-hydroxyphenyl)-7-(prop-1-yn-1-yl)phthalazin-1-yl)amino) propan-1,2-diol] | 79% | 74% | –
2 | 66 nM | CC#Cc1ccc2c(-c3ccc(C(F)(F)F)cc3O)nnc(N[C@@H]3COCC[C@H]3O)c2c1 [Compound 067, (3R,4R)-3-((4-(2-hydroxy-4-(trifluoromethyl)phenyl)-7-(prop-1-yn-1-yl)phthalazin-1-yl)amino)tetrahydro-2H-pyran-4-ol] | – | – | –
3 | 42 nM | CC#Cc1ccc2c(-c3ccc(C(F)(F)F)cc3O)nnc(N[C@@H]3CCC[C@H](O)C3)c2c1 [Compound 070] | – | – | –
4 | 23 nM | CC#Cc1ccc2c(-c3c(O)cc(C(F)(F)F)cc3F)nnc(NC[C@H](C)O)c2c1 [Compound 071, 3-fluoro-2-(4-(((S)-2-hydroxypropyl)amino)-6-(prop-1-yn-1-yl)phthalazin-1-yl)-5-(trifluoromethyl)phenol] | – | – | –
5 | 7.2 nM | CC#Cc1ccc2c(-c3ccc(Cl)cc3O)nnc(N[C@@H]3CCN(CCO)C3=O)c2c1 [Compound 074, (R)-3-((4-(4-chloro-2-hydroxyphenyl)-7-(prop-1-yn-1-yl)phthalazin-1-yl)amino)-1-(2-hydroxyethyl)pyrrolidin-2-one] | – | – | –
6 | 7 nM | CC#Cc1ccc2c(-c3ccc(Cl)cc3O)nnc(N[C@@H]3CCCN(CCO)C3=O)c2c1 [Compound 075, (R)-3-((4-(4-chloro-2-hydroxyphenyl)-7-(prop-1-yn-1-yl)phthalazin-1-yl)amino)-1-(2-hydroxyethyl) piperidin-2-one] | – | – | –
7 | 41 nM | OC[C@@H](O)CNc1nnc(-c2ccc(Cl)cc2O)c2ccc(C#CC3CC3)cc12 [Compound 079, (S)-3-((4-(4-chloro-2-hydroxyphenyl)-7-(cyclopropylethynyl)phthalazin-1-yl)amino) propan-1,2-diol] | 51% | 21% | –
8 | 5.3 nM | CC(=O)c1ccc2c(-c3ccc(C(F)(F)F)cc3O)nnc(N[C@@H]3CCCC[C@H]3O)c2c1 [Compound 081] | 45% | 61% | –
9 | 32 nM | CC(=O)c1ccc2c(-c3ccc(C(F)(F)F)cc3O)nnc(NC[C@H](O)CO)c2c1 [Compound 082] | 0% | 12% | –

Continued, compound first:

Row | Compound | IC50 (NLRP3) | inhibition at 10 mg/kg (IL-1β; [1]) | inhibition at 10 mg/kg (IL-1β; [2]) | rebound of body weight after drug withdrawal (mouse NASH model)
10 | CC#Cc1ccc2c(-c3c(O)cc(C(F)(F)F)cc3F)nnc(NC[C@H](O)CO)c2c1 [Compound 064, (2S)-3-((4-(2-fluoro-6-hydroxy-4-(trifluoromethyl)phenyl)-7-(prop-1-yn-1-yl)phthalazin-1-yl)amino) propan-1,2-diol] | 18 nM | 81% | 90% | –
11 | CC#Cc1ccc2c(-c3ccc(C(F)(F)F)cc3O)nnc(N[C@@H]3CCCN(C)C3)c2c1 [Compound 068, (R)-2-(4-((1-methylpiperidin-3-yl)amino)-6-(prop-1-yn-1-yl)phthalazin-1-yl)-5-(trifluoromethyl)phenol] | 39 nM | – | – | –
12 | CC#Cc1ccc2c(-c3ccc(C(F)(F)F)cc3O)nnc(NCC(C)(C)O)c2c1 [Compound 069, 2-(4-((2-hydroxy-2-methylpropyl)amino)-6-(prop-1-yn-1-yl)phthalazin-1-yl)-5-(trifluoromethyl)phenol] | 31 nM | – | – | –
13 | CC#Cc1ccc2c(-c3ccc(Cl)cc3O)nnc(N[C@@H]3CC(=O)N(CCO)C3)c2c1 [Compound 073, (R)-4-((4-(4-chloro-2-hydroxyphenyl)-7-(prop-1-yn-1-yl)phthalazin-1-yl)amino)-1-(2-hydroxyethyl)pyrrolidin-2-one] | 51 nM | – | – | –
14 | CC#Cc1ccc2c(-c3ccc(Cl)cc3O)nnc(N[C@@H]3CCC(=O)N(CCO)C3)c2c1 [Compound 076, (R)-5-((4-(4-chloro-2-hydroxyphenyl)-7-(prop-1-yn-1-yl)phthalazin-1-yl)amino)-1-(2-hydroxyethyl) piperidin-2-one] | 35 nM | – | – | –
15 | Oc1cc(Cl)ccc1-c1nnc(N[C@@H]2CCCC(=C(F)F)C2)c2cnccc12 [Compound 080, (R)-5-chloro-2-(4-((3-(difluoromethylene)cyclohexyl)amino)pyridin[3,4-d]pyridazin-1-yl)phenol] | 36 nM | – | – | –
16 | semaglutide [reference compound] | – | – | – | neither the control compound combined with semaglutide nor the groups of low/high dose semaglutide alone inhibited the rebound of body weight
